Test results as given in ChEMBL document CHEMBL5532651, “HDAC specificity and kinase off-targeting by purine-benzohydroxamate anti-hematological tumor agents” (Eur J Med Chem, 2024).
Active and inactive are the calls of the source. No cut-off for these calls is given here.

Tests used:
MCF7 = experiment: cells; assay type: functional, cell-based; conditions: Homo sapiens
[1] = Selectivity index, ratio of IC50 for human HCT-116 cells to IC50 for human Jurkat cells; assay type: functional
[2] = Selectivity index, ratio of IC50 for human MCF7 cells to IC50 for human Jurkat cells; assay type: functional
[3] = Selectivity index, ratio of IC50 for human HS5 cells to IC50 for human Jurkat cells; assay type: functional
[4] = Selectivity index, ratio of IC50 for human leukocytes cells to IC50 for human NAMALVA cells; assay type: functional
Jurkat = experiment: Inhibition of cell proliferation of human Jurkat cells assessed as reduction in Ki-67 expression at IC50 measured after 48 hrs by flow cytometry; assay type: functional, cell-based
U-937 [5] = experiment: Inhibition of cell proliferation of human U-937 cells assessed as reduction in Ki-67 expression at IC50 measured after 48 hrs by flow cytometry; assay type: functional, cell-based
NAMALVA [6] = experiment: Inhibition of cell proliferation of human NAMALVA cells assessed as reduction in Ki-67 expression at IC50 measured after 48 hrs by flow cytometry; assay type: functional, cell-based
U-937 [7] = experiment: Induction of apoptosis in human U-937 cells at IC50 measured after 48 hrs by flow cytometry; assay type: functional, cell-based
NAMALVA [8] = experiment: Induction of apoptosis in human NAMALVA cells at IC50 measured after 48 hrs by flow cytometry; assay type: functional, cell-based
[9] = molecular target: T1, Protein deacetylase HDAC6 (Homo sapiens, UniProt Q9UBN7); experiment: Inhibition of full-length recombinant human HDAC6 expressed in baculovirus infected Sf9 cells using RHKK(Ac)AMC as substrate preincubated for 5 to 10 mins followed by substrate addition measured after 2 hrs by fluorescence based assay
T1 sequence (Q9UBN7 whole entry): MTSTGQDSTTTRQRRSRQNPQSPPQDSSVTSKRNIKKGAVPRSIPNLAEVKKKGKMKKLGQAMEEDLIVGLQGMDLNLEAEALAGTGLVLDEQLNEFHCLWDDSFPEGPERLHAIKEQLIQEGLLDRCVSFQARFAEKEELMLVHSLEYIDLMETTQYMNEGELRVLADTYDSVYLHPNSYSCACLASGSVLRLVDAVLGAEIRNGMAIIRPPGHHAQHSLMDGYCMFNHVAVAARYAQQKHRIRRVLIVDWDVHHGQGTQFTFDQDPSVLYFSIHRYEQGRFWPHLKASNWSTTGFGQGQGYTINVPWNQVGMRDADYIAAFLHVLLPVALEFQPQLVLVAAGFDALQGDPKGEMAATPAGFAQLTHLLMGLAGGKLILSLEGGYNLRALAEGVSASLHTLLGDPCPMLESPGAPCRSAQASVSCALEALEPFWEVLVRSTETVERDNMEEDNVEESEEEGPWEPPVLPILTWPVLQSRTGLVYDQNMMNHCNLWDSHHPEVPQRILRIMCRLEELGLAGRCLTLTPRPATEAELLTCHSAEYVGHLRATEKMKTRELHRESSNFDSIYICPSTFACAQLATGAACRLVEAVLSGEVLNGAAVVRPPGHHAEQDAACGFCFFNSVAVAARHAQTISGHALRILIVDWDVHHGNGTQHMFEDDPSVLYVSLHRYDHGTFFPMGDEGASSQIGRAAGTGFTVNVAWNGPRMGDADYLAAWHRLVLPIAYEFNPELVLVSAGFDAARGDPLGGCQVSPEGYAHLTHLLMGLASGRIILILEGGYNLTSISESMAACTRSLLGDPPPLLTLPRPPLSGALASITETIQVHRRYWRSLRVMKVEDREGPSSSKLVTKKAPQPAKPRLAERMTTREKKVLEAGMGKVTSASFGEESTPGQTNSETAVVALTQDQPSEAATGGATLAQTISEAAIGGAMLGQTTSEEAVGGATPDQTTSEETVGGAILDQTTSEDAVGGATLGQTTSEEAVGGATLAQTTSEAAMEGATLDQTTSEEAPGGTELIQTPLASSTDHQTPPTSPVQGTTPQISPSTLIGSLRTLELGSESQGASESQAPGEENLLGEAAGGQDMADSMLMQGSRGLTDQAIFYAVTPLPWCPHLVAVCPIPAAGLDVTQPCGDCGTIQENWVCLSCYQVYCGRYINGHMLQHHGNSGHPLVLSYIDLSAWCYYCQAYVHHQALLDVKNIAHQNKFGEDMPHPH

Histone deacetylase 1 [10] = molecular target: T2, Histone deacetylase 1 (Homo sapiens, UniProt Q13547); experiment: Inhibition of HDAC1 in human Jurkat cells assessed as increase in acetyl-histone H3 level at IC50 incubated for 48 hrs by Western blot analysis; assay type: cell-based
Histone deacetylase 1 [11] = molecular target: T2, Histone deacetylase 1; experiment: Inhibition of HDAC1 in human U-937 cells assessed as increase in acetyl-histone H3 level at IC50 incubated for 48 hrs by Western blot analysis; assay type: cell-based
Histone deacetylase 1 [12] = molecular target: T2, Histone deacetylase 1; experiment: Inhibition of HDAC1 in human NAMALVA cells assessed as increase in acetyl-alpha-tubulin level at IC50 incubated for 48 hrs by Western blot analysis; assay type: cell-based
Histone deacetylase 1 [13] = molecular target: T2, Histone deacetylase 1; experiment: Inhibition of HDAC1 in human U-937 cells assessed as increase in acetyl-alpha-tubulin level at IC50 incubated for 48 hrs by Western blot analysis; assay type: cell-based
[14] = molecular target: T3, Protein deacetylase HDAC6 (Homo sapiens) (UniProt Q9UBN7); experiment: Inhibition of HDAC6 in human Jurkat cells assessed as increase in acetyl-histone H3 level at IC50 incubated for 48 hrs by Western blot analysis; assay type: cell-based
T3 sequence (whole entry): T1 sequence (Q9UBN7 whole entry)

[15] = molecular target: T3, Protein deacetylase HDAC6 (Homo sapiens); experiment: Inhibition of HDAC6 in human NAMALVA cells assessed as increase in acetyl-histone H3 level at IC50 incubated for 48 hrs by Western blot analysis; assay type: cell-based
[16] = molecular target: T3, Protein deacetylase HDAC6 (Homo sapiens); experiment: Inhibition of HDAC6 in human U-937 cells assessed as increase in acetyl-histone H3 level at IC50 incubated for 48 hrs by Western blot analysis; assay type: cell-based
[17] = molecular target: T3, Protein deacetylase HDAC6 (Homo sapiens); experiment: Inhibition of HDAC6 in human NAMALVA cells assessed as increase in acetyl-alpha-tubulin level at IC50 incubated for 48 hrs by Western blot analysis; assay type: cell-based
[18] = molecular target: T3, Protein deacetylase HDAC6 (Homo sapiens); experiment: Inhibition of HDAC6 in human U-937 cells assessed as increase in acetyl-alpha-tubulin level at IC50 incubated for 48 hrs by Western blot analysis; assay type: cell-based
CYP2C9 = CYP2C9 (Homo sapiens, UniProt P11712); experiment: Inhibition of CYP2C9 in liver microsomes (unknown origin) at 10 uM incubated for 10 mins relative to control; assay type: ADME, Microsome
[19] = Stability in human liver microsome assessed as half life at 1 uM measured for 60 mins by LC-MS/MS analysis; assay type: ADME; conditions: liver microsomes
[20] = Stability in human liver microsome assessed as intrinsic clearance at 1 uM measured for 60 mins by LC-MS/MS analysis; assay type: ADME; conditions: liver microsomes, read-out: CLH
HCT-116 = experiment: cells; conditions: Homo sapiens
NAMALVA [21] = experiment: cells; conditions: Homo sapiens

T2 sequence (Q13547 whole entry): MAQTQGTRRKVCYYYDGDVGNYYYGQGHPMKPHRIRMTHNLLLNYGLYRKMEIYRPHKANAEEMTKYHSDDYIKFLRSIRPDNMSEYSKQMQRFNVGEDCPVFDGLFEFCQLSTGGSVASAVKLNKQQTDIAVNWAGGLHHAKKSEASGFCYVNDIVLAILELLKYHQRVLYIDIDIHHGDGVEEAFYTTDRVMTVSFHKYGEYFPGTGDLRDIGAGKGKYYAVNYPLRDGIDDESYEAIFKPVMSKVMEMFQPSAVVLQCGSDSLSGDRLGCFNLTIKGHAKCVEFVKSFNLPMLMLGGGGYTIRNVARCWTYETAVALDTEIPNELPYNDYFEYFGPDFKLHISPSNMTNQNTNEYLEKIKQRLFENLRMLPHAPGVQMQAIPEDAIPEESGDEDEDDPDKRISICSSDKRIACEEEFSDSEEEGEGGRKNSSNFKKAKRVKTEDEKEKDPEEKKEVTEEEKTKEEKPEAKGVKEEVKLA
CYP2C9, sequence (P11712 whole entry): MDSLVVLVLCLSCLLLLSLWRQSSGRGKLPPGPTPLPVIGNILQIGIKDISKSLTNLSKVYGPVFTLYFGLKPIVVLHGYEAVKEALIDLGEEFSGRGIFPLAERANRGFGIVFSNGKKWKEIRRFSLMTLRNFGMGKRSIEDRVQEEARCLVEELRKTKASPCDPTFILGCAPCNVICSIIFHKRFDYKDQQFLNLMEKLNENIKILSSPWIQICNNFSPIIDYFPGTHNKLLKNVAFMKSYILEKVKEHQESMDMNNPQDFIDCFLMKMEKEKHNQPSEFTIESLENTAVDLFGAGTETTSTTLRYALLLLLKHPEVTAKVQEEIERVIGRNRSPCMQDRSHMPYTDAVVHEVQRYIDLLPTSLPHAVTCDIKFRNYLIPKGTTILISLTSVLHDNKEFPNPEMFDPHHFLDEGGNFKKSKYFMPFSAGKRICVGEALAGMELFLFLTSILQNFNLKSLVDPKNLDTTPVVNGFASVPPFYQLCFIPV

| Structure (SMILES) | IC50 (MCF7) [µM] | Ratio IC50 [1] | Ratio IC50 [2] | Ratio IC50 [3] | Ratio IC50 [4] | inhibition (Jurkat) | inhibition (U-937 [5]) | inhibition (NAMALVA [6]) | Activity (U-937 [7]) | Activity (NAMALVA [8]) | IC50 [9] [µM] | inhibition (Histone deacetylase 1 [10]) | inhibition (Histone deacetylase 1 [11]) | inhibition (Histone deacetylase 1 [12]) | inhibition (Histone deacetylase 1 [13]) | inhibition [14] | inhibition [15] | inhibition [16] | inhibition [17] | inhibition [18] | also measured |
| --- | --- | --- | --- | --- | --- | --- | --- | --- | --- | --- | --- | --- | --- | --- | --- | --- | --- | --- | --- | --- | --- |
| O=C(NO)c1ccc(Cn2cnc3c(Nc4ccc(F)c(Cl)c4)ncnc32)cc1 | 9.3 | 83 | 83 | >=100 | >=100 | Active | Active | Active | Active | Active | 0.341 | Active | Active | Active | Active | Active | Active | Active | Active | Active | inhibition at 10 min, 10 µM (CYP2C9): 52%; half-life at 1 µM [19]: > 2 h; microsomal CLint at 1 µM [20]: < 6 µL/min/mg; IC50 (HCT-116): 9.3 µM; IC50 (NAMALVA [21]): 0.04 µM |
| COc1ccc(Nc2ncnc3c2ncn3Cc2ccc(C(=O)NO)cc2)cc1 | 19.5 | 83 | 83 | >=100 | >=100 | Active | Active | Active | Active | Active | 0.232 | Active | Active | Active | Active | Active | Active | Active | Active | Active | inhibition at 10 min, 10 µM (CYP2C9): 34%; half-life at 1 µM [19]: > 2 h; microsomal CLint at 1 µM [20]: < 6 µL/min/mg; IC50 (HCT-116): 8.3 µM; IC50 (NAMALVA [21]): 0.1 µM |
